The text below walks through data of patent US20100152188A1, “Novel Heterocyclic Compounds” (priority 2005, published 2010).

In data set [1] the test system is HDAC. Briefly: HDAC inhibition. Format: biochemical. The following applies: for HDAC Inhibition 1 μM: compound at 1 μM; for HDAC Inhibition 10 μM: compound at 10 μM.

The compound `O=C(NCc1ccc(C(=O)N2CCN(c3ncccn3)CC2)cc1)OCc1cccs1` [Example 72, 2-Thienylmethyl{4-[(4-pyrimidin-2-ylpiperazin-1-yl)carbonyl]benzyl}carbamate] showed a melting point of 143.6 to 144.6 °C. For the same compound, in data set [1], the “HDAC Inhibition 1 μM” value turned out to be 8.08 and the “HDAC Inhibition 10 μM” value came to 8.40.

Take `O=C(NCc1ccc(C(=O)N[C@@H](Cc2ccc(O)cc2)C(=O)NO)cc1)OCc1cccs1` [Example 100, 2-Thienylmethyl[4-({[2-(hydroxyamino)-1-(4-hydroxybenzyl)-2-oxoethyl]amino}carbonyl)benzyl]carbamate]: the melting point lay within 162.6 to 163.4 °C. Besides, in data set [1], the “HDAC Inhibition 1 μM” value turned out to be 13.63 and the “HDAC Inhibition 10 μM” value turned out to be 40.64.

The term melting point denotes the temperature of the solid-liquid transition.
